Experimental data taken from patent US8481691B2, “Method for selectively extracting membrane proteins using calixarenes” (Centre National de la Recherche Scientifique—CNRS, priority 2008, dated 2013).

Tests used:
[1] = Modulation of surfactant potential by amino acids (surface tension); assay type: physicochemical; conditions: compound 10^−2 M, pH 8.0
Description: The compound p(COOH)3—Ar4-o(C7H15) is present at a concentration of 10^−2 M whereas that of the amino acids vary as indicated. The surface tension is measured at pH 8.0. The amino acids are indicated by their three-letter code: Glu=glutamic acid, Trp=tryptophan, Asn=asparagine, Gly=glycine, Ala=alanine, Ser=serine, Phe=phenylalanine, Leu=leucine, Pro=Proline, Lys=lysine, His=histidine, Arg=arginine. Each point corresponds to the mean of three values.
(§1) The surfactant properties of the calixarenes of formula (I) are evaluated in a 1 ml sitting drop by means of a Kibron micro-depression instrument and using a stainless steel syringe and a Wilhelmy balance. The curves obtained are processed with the software Sigmaplot v11.

[2] = molecular target: T1, BmrA (Bacillus subtilis, UniProt O06967); test: Solubilization of BmrA from enriched membrane fractions (centrifugation, SDS PAGE); assay type: biochemical, E. coli membrane fraction; conditions: for Solubilization of BmrA: FIG. 8; for Solubilization of BmrA (found in supernatant): detergent 10 mg/ml (1%), 2 mg proteins/ml, 2 hrs at 4° C., FIG. 7
T1 construct: made in house; host or cells: E. coli C41 BL21(DE3), plasmid pET15b-BMRA; isolated membrane fraction
T1 sequence (O06967 whole entry): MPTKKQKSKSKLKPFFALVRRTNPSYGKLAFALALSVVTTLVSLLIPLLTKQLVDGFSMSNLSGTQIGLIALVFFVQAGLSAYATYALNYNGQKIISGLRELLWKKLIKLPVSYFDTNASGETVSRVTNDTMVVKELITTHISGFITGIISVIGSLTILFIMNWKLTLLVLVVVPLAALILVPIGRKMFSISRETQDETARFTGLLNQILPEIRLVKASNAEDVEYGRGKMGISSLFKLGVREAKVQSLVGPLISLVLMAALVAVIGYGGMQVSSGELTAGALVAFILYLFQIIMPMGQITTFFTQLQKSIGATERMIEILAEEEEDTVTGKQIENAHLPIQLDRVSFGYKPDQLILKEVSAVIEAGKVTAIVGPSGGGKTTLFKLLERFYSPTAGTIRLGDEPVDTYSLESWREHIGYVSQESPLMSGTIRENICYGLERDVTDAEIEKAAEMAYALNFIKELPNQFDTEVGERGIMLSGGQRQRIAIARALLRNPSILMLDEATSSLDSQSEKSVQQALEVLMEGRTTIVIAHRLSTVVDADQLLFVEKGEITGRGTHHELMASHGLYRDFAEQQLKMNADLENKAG
Text: The gray and black dotted lines and the black line serve as a scale of the efficacy of the molecules to be solubilized. The “no det” lines signify “without detergent”.
The experimental conditions are those of FIG. 7, with the exception of the concentrations of the butyl, heptyl and dodecyl molecules which are as indicated in the figure, for which the g/L<->M correspondence is indicated in Table 2. The “no det” lines signify “without detergent”.
The competent bacteria C41 BL21(DE3) E. coli (Escherichia coli) were transformed with the plasmid pET15b-BMRA bearing the gene coding for BmrA and placed under the control of an inducible promoter and a gene coding for the protein conferring resistance to ampicillin. A positive clone was cultured in a liquid medium at 37° C. and 200 rpm in the presence of ampicillin until a semi-exponential growth phase. The expression of BmrA is induced by addition of 1 mM of isopropyl thio β-galactoside and continued at 25° C. for 4 hrs. The bacteria were harvested by centrifugation, disrupted in a French press, and the membrane fraction was isolated by a series of centrifugation stages at low and high speeds. The protein content was evaluated by colorimetry and set at 20 mg/ml (20 mM Tris-Cl pH 8.0, […] NaCl, 300 mM sucrose) before freezing and storage in liquid nitrogen. Before use, the membrane fraction is then rapidly thawed in water and maintained at 4° C. in ice.
The solubilization is effected at 4° C.

[3] = Critical Micellar Concentration estimated from surface tension data; assay type: physicochemical
Description: The effect of the molecules having an alkyl chain with 1 to 12 methylene groups (m, x axis in the figure) on the CMC is measured at a concentration of 10^−2 M, at pH 6.0 (solid circles) and 8.0 (open circles). Each point corresponds to the mean of three values, estimated from the data from FIG. 2.
as §1
Critical Micellar Concentration (CMC) is understood to mean the concentration beyond which the concentration of the detergent molecules no longer increases since said molecules are involved in micelles (FIG. 13). […] Conversely, when the alkyl chains include more than 8 methylene groups, the resulting CMC decreases appreciably to 0.15 mM when the pH increases from 6 to 8.

[4] = molecular target: T1, BmrA; test: Vanadate-sensitive ATPase activity of BmrA after solubilization; assay type: biochemical; conditions: for Effect on ATPase activity of BmrA: 1 mg/ml; for Effect on ATPase activity of BmrA / ATPase activity of BmrA with solubilization: FIG. 9; for ATPase activity of BmrA after reconstitution in liposomes: after removal of the detergents; for Loss of ATPase activity of BmrA once solubilized: relative to BmrA activity in natural membranes; for ATPase activity of BmrA with solubilization: increasing detergent concentration
Text: The solubilization tests take place as in FIG. 8 and the ATPase activity tests are described in example 11. The vertical dotted lines show the CMC of each compound. The black lozenges correspond to a test in which BmrA is solubilized with p(COOH)3—Ar4-o(C7H15) then reconstituted in lipids after removal of the detergent with biobeads (Bio-Rad) according to the procedure described in Lenoir et al..
The percentage of specific ATPase activity sensitive to vanadate (% SA or % VO4 sensitive Specific ATPase Activity) is evaluated for the following different cases: • BmrA Mb: activity of BmrA in natural membranes, • DDM sup./DDM: activity of BmrA in the DDM extract, • DDM sup./Lip.: activity of BmrA from the DDM extract and reconstituted in liposomes, • FC12 sup./FC12: activity of BmrA in the Foscholine 12 extract, • FC12 sup./Lip.: activity of BmrA from the Foscholine 12 extract and reconstituted in liposomes, • C4C7 sup./[…]: activity of BmrA in the calixarene C4C7 (in other words calix[4]arene-O-heptyloxy) extract, • C4C7 sup./Lip.: activity of BmrA from the calixarene C4C7 extract and reconstituted in liposomes.
FIG. 12 summarizes the results of an extraction successively using the calixarenes C4C3 then C4C7 (FIG. 12A) followed by purification by gel filtration chromatography (FIGS. 12B-E).
The ATPase activity is measured by evaluating the inorganic phosphate content (Pi) after 5 minutes of incubation at 37° C. The fraction of Pi produced by other ATPase activities is deducted by measuring the same activity in the presence of 1 mM of ortho vanadate which inhibits the ATPase activity of BmrA (for example as described in [10]).
The effect of the solubilization by the p(COOH)3—Ar4-o(CnH2n+1) series on the ATPase activity of BmrA was analyzed under the same conditions as in FIG. 8.
The effects of the solubilization on the activity of the BmrA protein were evaluated with various C4Cn calixarenes, in other words the p(COOH)3—Ar4-o(CnH2n+1) calixarenes, but also with the control detergents such as Foscholine 12 (FC12) and β-D-dodecyl maltopyranoside (DDM), then the extracts obtained (supernatant fractions) were dialyzed in the presence of liposomes in order to restore a membrane environment, which enables the recovery of the activity of the protein.

[5] = Aggregation state / apparent diameter of aggregates; assay type: physicochemical
[6] = Surface tension measurement of water (surfactant properties); assay type: physicochemical
Text: The effect of the derivatives of calix[4]arene containing alkyl chains with 1 to 12 carbon atoms on the surface tension of water was followed as a function of the concentration of said derivatives (molar M or mol/L) at pH 6.0 (not exposed) and 8.0 (exposed). The surface-active properties of DDM (β-D-dodecyl malto-pyranoside) are also shown in this figure. Each point corresponds to the mean of three values.
The effect of the molecules containing an alkyl chain having from 1 to 12 methylene groups (n, x axis in FIG. 3) on the surface tension of water was measured at a concentration of 10^−2M, at pH 6.0 (open circles) and at pH 8.0 (squares). Each point corresponds to the mean of three values.
as §1

calix[4]arene-O-heptyloxy [C4C7]
Effect of amino acid on surface tension ([1]; alanine, phenylalanine, leucine): amplified | Effect of amino acid on surface tension ([1]; glutamic acid or asparagine): No effect | Effect of amino acid on surface tension ([1]; glycine): moderate effect | Effect of amino acid on surface tension ([1]; positively charged amino acids histidine, lysine, arginine, listed as n=7): very pronounced | Effect of amino acid on surface tension ([1]; positively charged amino acids histidine, lysine, arginine, listed as p(COOH)3—Ar4-o(C7H15)): easily increased | Solubilization of BmrA ([2]; 1 mg/ml): rather effectively | CMC [3]: ~1.5 mM | Critical Micellar Concentration (CMC) [3]: about 1.5 mM | Effect on ATPase activity of BmrA [4]: does not lead to inactivation | ATPase activity of BmrA preserved ([4]; C4C3 and C4C7 used successively, FIG. 11): about 50% | ATPase activity of BmrA fraction after gel filtration ([4]; extracted with C4C7, gel filtration in the presence of FC12, fraction a FIG. 12E): recovered active | ATPase activity of BmrA fraction reconstituted in liposomes ([4]; extracted with C4C7, gel filtration, then liposomes, fraction b FIG. 12E): elevated ATPase activity was recovered

CCCCCCCCCCCCO[C@@H]1O[C@H](CO)[C@@H](O[C@H]2O[C@H](CO)[C@@H](O)[C@H](O)[C@H]2O)[C@H](O)[C@H]1O [DDM, n-dodecyl-β-D-maltopyranoside]
Solubilization of BmrA (found in supernatant) [2]: more pronounced | ATPase activity of BmrA after reconstitution in liposomes ([4]; FIG. 11): recovered | Loss of ATPase activity of BmrA once solubilized ([4]; FIG. 11): 95%

COc1c2cccc1Cc1cc(CC(=O)O)cc(c1O)Cc1cc(CC(=O)O)cc(c1O)Cc1cc(CC(=O)O)cc(c1O)C2 [compound 5a, 5,11,17 tris-[(carboxylato)methyl]25-mono-methyloxy 26,27,28 tris-hydroxycalix[4]arene]
Apparent diameter (nm) ([5]; pH 2): 950 nm | Apparent diameter (nm) ([5]; pH 4): 340 nm | Apparent diameter (nm) ([5]; pH 8): 270 nm | Solubilization of BmrA (found in supernatant) [2]: No solubilization | CMC [3]: >1.5 mM

CCCCCCCCCCCCOCCOCCOCCOCCOCCOCCOCCOCCO [C12E8]
ATPase activity of BmrA with solubilization [4]: decreases with the solubilization

CCCCCCOc1c2cccc1Cc1cc(CC(=O)O)cc(c1O)Cc1cc(CC(=O)O)cc(c1O)Cc1cc(CC(=O)O)cc(c1O)C2 [compound 5c]
Apparent diameter (nm) ([5]; pH 2): 850 nm | Apparent diameter (nm) ([5]; pH 6): 400 nm | Solubilization of BmrA (found in supernatant) [2]: more pronounced

CCCCCCCCCCCCOc1c2cccc1Cc1cc(CC(=O)O)cc(c1O)Cc1cc(CC(=O)O)cc(c1O)Cc1cc(CC(=O)O)cc(c1O)C2 [compound 5d, 5,11,17 tris-[(carboxylato)methyl]25-mono-dodecyl 26,27,28 tris-hydroxycalix[4]arene]
Apparent diameter (nm) ([5]; pH 2): 880 nm | Apparent diameter (nm) ([5]; pH 6): 190 nm | Solubilization of BmrA ([2]; 1 mg/ml): rather effectively | Solubilization of BmrA ([2]; at CMC of 0.15 mM (0.1 g/L)): no solubilization | CMC [3]: ~0.15 mM | Critical Micellar Concentration (CMC) [3]: 0.15 mM | Effect on ATPase activity of BmrA [4]: does not lead to inactivation | Surface tension plateau relative to initial surface tension ([6]; 10^−2 M, pH 8.0, FIG. 3): half the initial surface tension | Surfactant properties (ability to decrease the surface tension of water) ([6]; as a function of concentration, FIG. 2): surfactant properties close to those of DDM

CCCCOc1c2cccc1Cc1cc(CC(=O)O)cc(c1O)Cc1cc(CC(=O)O)cc(c1O)Cc1cc(CC(=O)O)cc(c1O)C2 [compound 5b, 5,11,17 tris-[(carboxylato)methyl]25-mono-butyloxy 26,27,28 tris-hydroxycalix[4]arene]
Apparent diameter (nm) ([5]; pH 2): 500 nm | Apparent diameter (nm) ([5]; pH 6): 145 nm | Solubilization of BmrA (found in supernatant) [2]: increases progressively

CCCCCCCCCCCCOP(=O)([O-])OCC[N+](C)(C)C [FC12, n-dodecylphosphocholine]
Solubilization of BmrA (found in supernatant) [2]: complete | ATPase activity of BmrA after reconstitution in liposomes ([4]; FIG. 11): recovered | ATPase activity of BmrA with solubilization [4]: decreases with the solubilization | Loss of ATPase activity of BmrA once solubilized ([4]; FIG. 11): 99%
